Measured values as given in paper PMC10526274, “Epithelial-Immune Cell Crosstalk Determines the Activation of Immune Cells In Vitro by the Human Cathelicidin LL-37 at Low Physiological Concentrations” (Biomolecules, 2023).

Tested on: NKT cells (CD3+CD56+)
Assay: Multiplex xMAP cytokine levels, NKT cells alone stimulated with LL-37
Format: cell-based, human
Details: 1 µM LL-37, 24 h
Method: NKT cells (CD3^+CD56^+) were isolated from PBMCs using the FACSVantageDiVa cell sorter (Becton Dickinson, Franklin Lakes, NJ, USA), equipped with 405, 488, and 643 nm lasers (Supporting Materials, Figure S1). PBMCs were re-suspended in the FACS buffer (PBS containing 0.5% BSA and 2 mM EDTA) and labeled with monoclonal mouse anti-human CD3-APC (clone UCHT1, Beckman Coulter, Pasadena, CA, USA) and mouse anti-human CD56-PE/Cy7 (clone N901, Beckman Coulter) antibodies to isolate NKT cells (CD3^+CD56^+).
Sorted NKT cells were expanded by stimulation with Dynabead Human T-Expander CD3/CD28 magnetic beads (Gibco) in RPMI-1640 medium containing 10% FBS, 1X antibiotic–antimycotic solution, 100 U/mL IL-2 (Gibco), and 50 ng/mL IL-7 (Sci-Store). CD3/CD28 magnetic beads were subsequently removed with a magnet. Expanded NKT cells were washed out of the cytokines and cryopreserved.
Primary blood monocytes, moDCs, and NKT cells were seeded in 600 µL of complete RPMI-1640 with 10% Human AB serum (Capricorn Scientific, Ebsdorfergrund, Germany) and supplemented with 1X antibiotic–antimycotic solution into the wells of 24-well plates at a density of 3–7 × 10^5 cells/well 24 h before the experiment. Then, 24 h later, the medium in each well was replaced by the same medium with 1 µM of LL-37 for the sample wells or fresh medium alone for the control wells, and the permeable inserts with the Caco-2 monolayer with TEER > 400 Ω × cm^2, containing 400 μL of the complete medium in their apical chamber, were immediately placed into the appropriate wells. Also, inserts with the Caco-2 monolayer were placed in cell-free wells of 24-well plates in the same complete RPMI-1640 medium with or without 1 µM of LL-37 as controls. Cells were kept in a CO2-incubator (5% CO2, 37 °C) for another 24 h. Then, culture medium from each well was collected, centrifuged, and frozen at −70 °C.
To quantitatively evaluate a broad spectrum of analytes secreted by human cell cultures at the protein level, multiplex xMAP technology was used. The chosen panel (cat. #HCYTA-60K-PX48, Merck, Darmstadt, Germany) included 48 different magnetic beads with primary antibodies to the following cytokines, chemokines, and growth factors: CCL11 (Eotaxin-1), Flt-3 ligand, CX3CL1 (Fractalkine), sCD40L, FGF-2, EGF, GROα, GM-CSF, G-CSF, IL-1RA, IL-1α, IL-1β, IL-2, IL-3, IL-4, IL-5, IL-6, IL-7, CXCL8 (IL-8), IL-9, IL-10, IL-12p40, IL-12p70, IL-13, IL-15, IL-17A (CTLA8), IL-17E (IL-25), IL-17F, IL-18, IL-22, IL-27, IFNγ, IFNα2, CXCL10 (IP-10), CCL2 (MCP-1), CCL7 (MCP-3), CCL22 (MDC), CXCL9 (MIG), CCL3 (MIP-1α), CCL4 (MIP-1β), CCL5 (RANTES), M-CSF, PDGF-AA, PDGF-AB/BB, TNFα, TNFβ, TGFα, and VEGF-A. The assay was performed in accordance with the manufacturer’s instructions with overnight incubation of the samples with primary antibodies, and the plate was read on a MAGPIX System (Merck) using the xPONENT 4.2 software (Merck). The acquired fluorescence data were analyzed by the MILLIPLEX Analyst v5.1 software (Merck), which realized an advanced curve-fitting algorithm. Levels of the analytes in control and experimental samples were compared with an unpaired two-sample t-test using GraphPad Prism v.8.0.1 (GraphPad Software, Inc., San Diego, CA, USA). The p-values ≤ 0.05 were considered significant.

Substance: LL-37: the only human cathelicidin, host defense antimicrobial peptide of 37 a.a. residues, produced by solid-phase peptide synthesis
- IL-8 level (n=2, control 0.21): 2.37 pg/mL
- IL-10 level (n=2, control 1.55): <1.35↓ pg/ml
- IL-2 level (n=2, control 1.66): 1.16 pg/mL
- FLT-3L level (n=2, control 1.72): 1.67 pg/mL
- EGF level (n=2, control 2.26): 2.26 pg/mL
- IL-6 level (n=2, control 3.12): 1.89 pg/mL
- MCP-3 level (n=2, control 4.7): 4.7 pg/mL
- MDC level (n=2, control 5.04): 2.93 pg/mL
- IL-9 level (n=2, control 7.06): 7.45 pg/mL
- MIG level (n=2, control 10.31): 7.16 pg/mL
- IL-1a level (n=2, control 11.32): 13.27 pg/mL
- IL-27 level (n=2, control 13.33): 29.42 pg/mL
- IFNg level (n=2, control 13.41): 12.33 pg/mL
- TNFa level (n=2, control 14.53): 13.36 pg/mL
- sCD40L level (n=2, control 18.13): <8.15↓ pg/ml
- FGF-2 level (n=2, control 29.25): 21.45 pg/mL
- IP-10 level (n=2, control 56.07): 50.77 pg/mL
- M-GSF level (n=2, control 66.65): 60.35 pg/mL
- MIP-1b level (n=2, control 67.9): 58.14 pg/mL
- GM-CSF level (n=2, control 76.24): 76.06 pg/mL
- IL-13 level (n=2, control 251.23): 237.88 pg/mL
- IL-5 level (n=2, control 323.09): 285.93 pg/mL
- RANTES level (n=2, control 1182): 1237 pg/mL
- MIP-1a level (n=2, control 1355): 1113 pg/mL
- IL-7 level (n=2, control <0.30): <0.30↓ pg/ml
- IL-18 level (n=2, control <0.30): <0.30↓ pg/ml
- IL-3 level (n=2, control <0.55): <0.55↓ pg/ml
- GROa level (n=2, control <0.66): <0.66↓ pg/ml
- TGF-a level (n=2, control <0.68): <0.68↓ pg/ml
- IL-17A level (n=2, control <0.70): <0.70↓ pg/ml
- IL-1b level (n=2, control <0.74): <0.74↓ pg/ml
- IL-4 level (n=2, control <0.87): <0.87↓ pg/ml
- IL-1RA level (n=2, control <0.93): <0.93↓ pg/ml
- TNFb level (n=2, control <0.93): 1 pg/mL
- VEGFa level (n=2, control <1.26): <1.26↓ pg/ml
- MCP-1 level (n=2, control <1.35): <1.35↓ pg/ml
- IL-15 level (n=2, control <1.54): <1.54↓ pg/ml
- IL-12 (p70) level (n=2, control <1.71): <1.71↓ pg/ml
- G-CSF level (n=2, control <2.32): <2.32↓ pg/ml
- Eotaxin level (n=2, control <2.91): <2.91↓ pg/ml
- IL-12 (p40) level (n=2, control <3.33): <3.33↓ pg/ml
- IFNa2 level (n=2, control <3.88): <3.88↓ pg/ml
- PDGF-AB/BB level (n=2, control <5.00): <5.00↓ pg/ml
- PDGF-AA level (n=2, control <6.49): <6.49↓ pg/ml
- IL-22 level (n=2, control <6.61): <6.61↓ pg/ml
- IL-17F level (n=2, control <12.19): <12.19↓ pg/ml
- Fractalkine level (n=2, control <18.09): <18.09↓ pg/ml
- IL-17E/IL-25 level (n=2, control <19.43): <19.43↓ pg/ml
